# Legend:
# [1] = system: barley microspores; assay: Embryo induction and regeneration following pretreatment of barley genotypes; type: cell-based; conditions: for % embryoid Regeneration: 500 embryos per plate; for Embryoids: average from 3 plates
# Method: Embryogenesis from thirty different barley genotypes was conducted according to the procedure in accordance with the present invention. Between 10,000 to 15,000 embryos were usually produced per plate. Table 2 illustrates some counts of embryos based on an average of three replications (plates). Not all thirty genotypes were counted. However, response of each genotype was judged on the basis of the appearance of plates after two weeks and again after 4 to 5 weeks. Random samples of 500 embryos were taken from the counted plates and placed on regeneration media to estimate the embryo regeneration ability. […] FIG. 4 illustrates barley c.v. Igri embryo development at 3 weeks (FIG. 4(a)) and 5 weeks (FIG. 4(b)) on filter paper placed on solidified induction media.
# Three different pre-treatments were compared within the genotype Igri and no apparent differences were observed relative to embryo induction or regeneration (Table 2). Lina normally responds well in microspore culture following a mannitol pre-treatment, but in this study using the combination of cold plus mannitol for 7 days, response was low. Thus, embryo formation was also counted in Lina when a 21 day cold pretreatment had been used and this response was more typical of Lina (Table 2). The regeneration response from the two pretreatment methods on Lina was similar. The frequency of fertile doubled haploids among the Lina progeny following the two pretreatments was not different, namely 79% after the combination 7-day treatment and 83% after the 21 day cold pretreatment.
# Embryogenesis was visually assessed in barley winter genotypes; OAC Elmira, GBC776, GBC779, GBC780 and GBC781, and spring genotypes, Trinity, Cooper, Golden Promise, Disa, Morex, Excel, Elrose, Bruce, Rodeo, H936 and Sabarilis. […] Under these conditions about 2,000 plants per 10^5 microspores, or about 200 plants per spike on responsive genotypes has been observed.
# [2] = system: barley genotype Igri microspores; assay: Effect of duration of pretreatment on embryo formation; type: cell-based
# Method: The effect of the duration of pre-treatment on embryogenesis from barley genotype Igri for spikes incubated with 0.3 mol/L mannitol at 4° C. Table 3 illustrates that as few as 4 days of pre-treatment drastically effects the number of embryos formed from microspores. Although the number formed increases up to 28 days of pre-treatment, only a 4 day period is required to achieve beneficial effects. […] However, duration of pre-treatment did appear to effect Oxbow as previously mentioned, and as illustrated in Table 2.
# [3] = GBC 777, pretreatment 4 d 0.3M man. 4° C.
# [4] = GBC 778, pretreatment 4 d 3.3M man. 4° C.
# [5] = Harrington, pretreatment 3 d 0.3M man. 4° C.
# [6] = Igri, pretreatment 4 d 0.3M man. 4° C.
# [7] = Igri, pretreatment 4 d 0.3M man. 25° C.
# [8] = Lina, pretreatment 7 d 0.3M man 4° C.
# [9] = Manley, pretreatment 4 d 0.3M man. 4° C.
# [10] = Oxbow, pretreatment 21 d 0.3M man. 4° C.
# [11] = cold plus mannitol pre-treatment 3 to 4 days, 0.3 mol/liter mannitol at 4° C., responsive genotypes
compound,measurement,setting,value
OC[C@@H](O)[C@@H](O)[C@H](O)[C@H](O)CO [mannitol],% embryoid Regeneration,[1]; [3],89%
same,Embryoids,[1]; [3],14133
same,% embryoid Regeneration,[1]; [4],84%
same,Embryoids,[1]; [4],7667
same,Embryoids,"[1]; GBC 782, pretreatment 3 d 0.3M man. 4° C.",14496
same,Embryoids,"[1]; GBC 783, pretreatment 3 d 0.3M man. 4° C.",11360
same,% embryoid Regeneration,[1]; [5],36%
same,Embryoids,[1]; [5],5533
same,% embryoid Regeneration,[1]; [6],97%
same,Embryoids,[1]; [6],12380
same,% embryoid Regeneration,[1]; [7],88%
same,Embryoids,[1]; [7],13504
same,frequency of fertile doubled haploids among the Lina progeny,"[1]; Lina, combination of cold plus mannitol for 7 days",79%
same,% embryoid Regeneration,[1]; [8],81%
same,Embryoids,[1]; [8],8921
same,% embryoid Regeneration,[1]; [9],74%
same,Embryoids,[1]; [9],11360
same,% embryoid Regeneration,[1]; [10],58%
same,Embryoids,[1]; [10],10810
same,plants per 10^5 microspores,[1]; [11],"about 2,000 plants per 10^5 microspores"
same,plants per spike,[1]; [11],about 200 plants per spike
same,# Embryos formed,[2]; 4 d pretreatment of spikes at 4° C. in 0.3 mol/liter mannitol,9579
same,# Embryos formed,[2]; 7 d pretreatment of spikes at 4° C. in 0.3 mol/liter mannitol,9693
same,# Embryos formed,[2]; 14 d pretreatment of spikes at 4° C. in 0.3 mol/liter mannitol,8981
same,# Embryos formed,[2]; 21 d pretreatment of spikes at 4° C. in 0.3 mol/liter mannitol,9692
same,# Embryos formed,[2]; 28 d pretreatment of spikes at 4° C. in 0.3 mol/liter mannitol,10213

# Reference: patent US6812028B1, “Embryogenesis and plant regeneration from microspores” (University of Guelph, priority 1999, dated 2004)
